Data set [1] in a line: Discolouring of compounds on filter paper before and after sun-test illumination. The class given is physicochemical. Set-up: key: 0: No colour; 1: Very faint colour; 2: Light colour; 3: Medium colour; 4: Strong colour. Conditions: for Colour score prior to illumination: 10 mM in Ethanol:Labrasol:water 65:25:10, 10 ul spot on filter paper dried 15 minutes; for Colour score after illumination: spots illuminated in sun-test cabinet (Heraeus Suntest CPS), outdoor illumination, 5 minutes. On the procedure: The discolouring of compounds of formula I was investigated in a comparison with known aminobenzophenones.
Compounds were dissolved in DMSO at 100 mM. The solutions were diluted 1:10 in the test vehicle (Ethanol:Labrasol:water 65:25:10) just prior to the experiment. 10 ul aliquots were placed in droplets on filter paper and allowed to dry for 15 minutes into spots. Then the colour of the spots was scored using the following scale:
The spots were illuminated in a sun-test cabinet (Heraeus Suntest CPS) set for outdoor illumination for 5 minutes. The scoring was repeated after illumination.

The test system of data set [2] is comedones. Description: Rhino mouse model, reduction of number of comedones. The class given is in vivo. As to conditions: topical on the back daily for 21 days, 45 mM in acetone, percentage change compared to untreated control group. As to the method:
The rhino mouse is an in vivo model for the study of hyperplastic and comedolytic potency of compounds used in the treatment of acne. The rhino mouse has follicles on the skin, the orifices of which are distended with horny material, and these structures resembles human comedones.
The model uses mouse of the strain RHJ/LeJ Rhino, hr^rh/hr^rh. The mice are treated topically on the back daily for 21 days with the test compound. Compounds are tested for their ability to reduce the number of comedones.
The number of comedones in the skin of the mouse is determined by histological examination. The percentage change in the number of comedones compared to an untreated control group is calculated. The compounds were applied at 45 mM dissolved in acetone.

Data set [3] concerns TNF-α. Description: Inhibition of TNF-α secretion in LPS stimulated peripheral blood mononuclear cells. The class given is cell-based. As to conditions: PBMC; LPS stimulated human peripheral blood mononuclear cells, 18 hours, ELISA; read-out: The median inhibition concentration (IC50, nM) TNF-α. As to the method:
(§1) To study the effect of the compound of the present invention in vitro the inhibition of the IL-1β and TNF-α secretion was measured using the following procedure:
(§2) Cytokine production was measured in the media from lipopolysaccharide (LPS) stimulated peripheral blood mononuclear cells. The mononuclear cells were isolated from human peripheral blood by Lymphoprep® (Nycomed, Norway) fractionation and suspended in RPMI 1640 (growth medium) with foetal calf serum (FCS, 2%), at a concentration of 5×10^5 cells/ml. The cells were incubated in 24-well tissue culture plates in 1 ml aliquots. Test compounds were dissolved in dimethylsulfoxide (DMSO, 10 mM) and were diluted with the medium. Compounds were added to the cells for 30 minutes, then LPS ([…] final concentration) was added. The plates were incubated for 18 hours, and the concentration of IL-1β and TNF-α in the medium was determined by enzyme-linked immunosorbent assays. The median inhibitory concentrations (IC50) of the compounds were calculated.
Background: An ELISA detects its analyte on a solid surface through an enzyme-linked reagent.

The subject of data set [4] is IL-1β. Description: Inhibition of IL-1β secretion in LPS stimulated peripheral blood mononuclear cells. The class given is cell-based. As to conditions: PBMC; LPS stimulated human peripheral blood mononuclear cells, 18 hours, ELISA; read-out: The median inhibition concentration (IC50, nM) IL-1β. As to the method: as §1, §2

Turning to `CCCC(=O)OC(C)OC(=O)N(c1ccc(C(=O)c2ccccc2C)c(Cl)c1)c1ccc(F)cc1C` (stereo not shown) [Compound 112, Butyric acid 1-[[3-chloro-4-(2-methyl-benzoyl)-phenyl]-(4-fluoro-2-methyl-phenyl)-carbamoyloxy]-ethyl ester], in data set [1], the “Colour score prior to illumination” value worked out at 0 and the “Colour score after illumination” value turned out to be 0. Besides, in data set [2], the “Reduction in number of comedones” value is −56%. The IC50 in data set [3] is 12 nM. Further, the IC50 in data set [4] stood at 25 nM.
On to `CCCC(=O)OCOC(=O)N(c1ccc(C(=O)c2ccccc2C)c(Cl)c1)c1ccc(F)cc1C` [Compound 113, Butyric acid [[3-chloro-4-(2-methyl-benzoyl)-phenyl]-(4-fluoro-2-methyl-phenyl)-carbamoyloxy]-methyl ester], for which, in data set [1], the “Colour score prior to illumination” value stood at 0 and the “Colour score after illumination” value is recorded as 0. Besides, the “Reduction in number of comedones” value in data set [2] was −72%. Further, in data set [3], the IC50 turned out to be 10 nM. Further, in data set [4], the IC50 came out at 50 nM.
Take `COCC(=O)OC(C)OC(=O)N(c1ccc(C(=O)c2ccccc2C)c(Cl)c1)c1ccc(F)cc1C` (stereo not shown) [Compound 119, Methoxy-acetic acid 1-[[3-chloro-4-(2-methyl-benzoyl)-phenyl]-(4-fluoro-2-methyl-phenyl)-carbamoyloxy]-ethyl ester]: in data set [1], the “Colour score prior to illumination” value was found to be 0 and the “Colour score after illumination” value is 0.
Consider `Cc1ccccc1C(=O)c1ccc(N(C(=O)OC(C)OC(=O)C(C)(C)O)c2ccc(F)cc2C)cc1Cl` (stereo not shown) [Compound 128, 2-Hydroxy-2-methyl-propionic acid 1-[[3-chloro-4-(2-methyl-benzoyl)-phenyl]-(4-fluoro-2-methyl-phenyl)-carbamoyloxy]-ethyl ester], for which the IC50 in data set [3] turned out to be 7.9 nM; in data set [4] it was 10 nM.
Take `Cc1ccccc1C(=O)c1ccc(N(C(=O)OC(C)OC(=O)CC(C)C)c2ccc(F)cc2C)cc1Cl` (stereo not shown) [Compound 133, 3-Methyl-butyric acid 1-[[3-chloro-4-(2-methyl-benzoyl)-phenyl]-(4-fluoro-2-methyl-phenyl)-carbamoyloxy]-ethyl ester]: the “Colour score prior to illumination” value in data set [1] was found to be 0. In addition, in data set [1], the “Colour score after illumination” value worked out at 0. In addition, in data set [2], the “Reduction in number of comedones” value was −61%. For the same molecule, the figures for the IC50 in data set [3] and in data set [4] were 20 nM and 79 nM, respectively.
Take `C/C=C/C(=O)OC(C)OC(=O)N(c1ccc(C(=O)c2ccccc2C)c(Cl)c1)c1ccc(F)cc1C` (stereo not shown) [Compound 137, (E)-But-2-enoic acid 1-[[3-chloro-4-(2-methyl-benzoyl)-phenyl]-(4-fluoro-2-methyl-phenyl)-carbamoyloxy]-ethyl ester]: the IC50 in data set [3] worked out at 5 nM; in data set [4], 7.9 nM.
As for `Cc1ccccc1C(=O)c1ccc(N(C(=O)OC(C)OC(=O)c2cccnc2)c2ccc(F)cc2C)cc1Cl` (stereo not shown) [Compound 147, Nicotinic acid 1-[[3-chloro-4-(2-methyl-benzoyl)-phenyl]-(4-fluoro-2-methyl-phenyl)-carbamoyloxy]-ethyl ester], in data set [1], the “Colour score prior to illumination” value stood at 0 and the “Colour score after illumination” value was determined as 0.
For the molecule `Cc1cc(F)ccc1Nc1ccc(C(=O)c2ccccc2C)c(Cl)c1` [Reference a, 2-chloro-4-(4-fluoro-2-methyl-phenylamino)-2′-methylbenzophenone, reference compound], in data set [1], the “Colour score prior to illumination” value stood at 0 and the “Colour score after illumination” value came out at 3. Besides, the IC50 in data set [3] was determined as 7.9 nM. In addition, the IC50 in data set [4] turned out to be 32 nM.
Regarding `Cc1ccccc1C(=O)c1ccc(Nc2ccc(Br)cc2N)cc1Cl` [Reference b, 4-(2-amino-4-bromo-phenylamino)-2-chloro-2′-methylbenzophenone, reference compound], in data set [1], the “Colour score prior to illumination” value is 1 and the “Colour score after illumination” value was 3.
With `CNc1ccccc1C(=O)c1ccc(Nc2ccccc2N)cc1Cl` [Reference c, 4-(2-aminophenylamino)-2-chloro-2′-methylaminobenzophenon, reference compound], in data set [1], the “Colour score prior to illumination” value came out at 1 and the “Colour score after illumination” value is 3.

(Values after US20060058380A1, “Novel aminobenzophenone compounds” (priority 2002, published 2006).)
